Measurements reported in patent US8017611B2, “Pyridine and pyrazine derivatives -083” (AstraZeneca AB, priority 2007, dated 2011).
Marks after values point to notes of the source that are not given here.

Molecular target: T1, recombinant Axl tyrosine kinase (Homo sapiens, UniProt P30530)
T1 construct: encompassing amino acids 473 to 894 of Axl; GST (N); made in house; host or cells: SF126 insect cells
T1 sequence (P30530 473-894): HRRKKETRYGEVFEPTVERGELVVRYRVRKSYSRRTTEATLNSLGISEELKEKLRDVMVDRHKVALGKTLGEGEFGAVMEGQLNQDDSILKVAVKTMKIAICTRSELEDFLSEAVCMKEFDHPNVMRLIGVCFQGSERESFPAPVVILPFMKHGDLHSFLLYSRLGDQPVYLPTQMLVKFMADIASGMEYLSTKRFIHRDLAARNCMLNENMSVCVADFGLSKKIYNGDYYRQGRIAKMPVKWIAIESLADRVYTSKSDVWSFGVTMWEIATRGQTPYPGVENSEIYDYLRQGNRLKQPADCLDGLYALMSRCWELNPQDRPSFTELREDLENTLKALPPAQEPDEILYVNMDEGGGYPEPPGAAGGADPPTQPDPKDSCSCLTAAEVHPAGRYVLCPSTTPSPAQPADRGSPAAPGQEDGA
Test: In vitro Axl kinase assay (AlphaScreen), Test (a)
Assay type: biochemical
Details: 1 μM; mean calculated from a larger number of replicates than the first value
Protocol: Test compounds were prepared as 10 mM stock solutions in dimethylsulphoxide (DMSO) and diluted in DMSO as required. Aliquots (120 nl) of compound dilutions were filled into the wells of a Greiner 384-well low volume (LV) white polystyrene plate (Greiner Bio-one) using acoustic dispensing (Labcyte Echo 550). A 10 μl mixture of recombinant purified Axl enzyme, biotinylated peptide substrate (Biotin poly-GAT; CisBio, Catalogue No. 61GATBLB), 0.2 μM adenosine triphosphate (ATP) and a buffer solution [comprising 20 mM Tris-HCl pH 7.5 buffer, 0.01% v/v Tween, 5 mM dithiothreitol (DTT) and 10 mM manganese chloride] was incubated with the compounds at room temperature for 20 minutes.
Control wells that produced a minimum signal corresponding to 100% inhibited enzyme were created by adding 10 μM of Staurosporine.
The percentage kinase inhibition value is the percentage of Axl tyrosine kinase activity inhibited by the test compound at a concentration of 1 μM.

% Axl tyrosine kinase inhibition at 1 μM concentration (second value, †) [%] | SMILES
99.2 | Nc1ncc(-c2ccc(CN3CCOCC3)cc2)nc1-c1nc2ccccc2o1 [Example 20.6]

Same assay, conditions: test compound at 1 μM; first value quoted

SMILES | % Axl tyrosine kinase inhibition at 1 μM concentration
COc1cc(-c2cnc(N)c(-c3nc4ncccc4o3)c2)ccc1OCCCN1CCOCC1 [Example 43C.17] | 93.5%
COc1cc(-c2cnc(N)c(-c3nc4ncccc4o3)c2)ccc1OCC1CCCN(C)C1 (stereo not shown) [Example 43C.12] | 99.6%
CN(C)CCN1CCN(C(=O)c2ccc(-c3cnc(N)c(-c4nc5cccnc5o4)c3)cc2)CC1 [Example 45A.50] | 93.7%
Nc1ncc(-c2ccc(C(=O)NCCCn3ccnc3)cc2)cc1-c1nc2cccnc2o1 [Example 45A.53] | 98.8%
Nc1ncc(-c2ccc(OCCOC3CCNCC3)cc2)cc1-c1nc2ncccc2o1 [Example 43B.37] | 97.6%
CN(C)CCN(C)C(=O)c1ccc(-c2cnc(N)c(-c3nc4cccnc4o3)c2)cc1 [Example 45A.48] | 98.3%
Nc1ncc(-c2ccc(C(=O)NC3CCNC3)cc2)cc1-c1nc2cccnc2o1 (stereo not shown) [Example 45A.106] | 98.4%
N#CCc1ccc(-c2cnc(N)c(-c3nc4cccnc4o3)c2)cc1 [Example 9A.16] | 97.7%
CN1CCN(C(=O)c2cccc(-c3cnc(N)c(-c4nc5cccnc5o4)c3)c2)CC1 [Example 9A.18] | 80.8%
CN1CCCC(Oc2ccc(-c3cnc(N)c(-c4nc5ncccc5o4)c3)cc2)C1 (stereo not shown) [Example 43B.9] | 98.2%
Nc1ncc(-c2cccc(CN3CCCC3)c2)cc1-c1nc2ccncc2o1 [Example 11A.5] | 97.4%
Nc1ncc(-c2ccc(OCCOC3CNC3)cc2)cc1-c1nc2ncccc2o1 [Example 43B.39] | 98.2%
COc1cc(-c2cnc(N)c(-c3nc4ncccc4o3)c2)ccc1OCCCN1CCNCC1 [Example 43C.32] | 99.8%
CN1CCN(S(=O)(=O)CCCOc2ccc(-c3cnc(N)c(-c4nc5ncccc5o4)c3)cc2)CC1 [Example 43B.24] | 98.2%
Nc1ncc(-c2ccc(C(=O)N3CCC(O)CC3)cc2)cc1-c1nc2ccncc2o1 [Example 11A.2] | 97.5%
Nc1ncc(-c2ccc(OCCN3CCOCC3)cc2)cc1-c1nc2ncccc2o1 [Example 43B.6] | 96.4%
Nc1ncc(-c2cnn(C3CCNCC3)c2)cc1-c1nc2c(F)cccc2o1 [Example 38A.2] | 100.0%
CC1CN(CCCOc2ccc(-c3cnc(N)c(-c4nc5ncccc5o4)c3)cc2)CC(C)N1 (stereo not shown) [Example 43B.42] | 96.6%
Nc1ncc(-c2ccc(C(=O)NCCO)cc2)cc1-c1nc2ncccc2o1 [Example 10A.5] | 91.4%
NCCOc1ccc(-c2cnc(N)c(-c3nc4ncccc4o3)c2)cc1 [Example 43B.25] | 97.5%
Nc1ncc(-c2ccc(C(=O)N3CCN(Cc4cccnc4)CC3)cc2)cc1-c1nc2cccnc2o1 [Example 45A.61] | 95.1%
COc1cc(-c2cnc(N)c(-c3nc4ncccc4o3)c2)ccc1OC1CCCNC1 (stereo not shown) [Example 43C.26] | 99.6%
CNCCOc1ccc(-c2cnc(N)c(-c3nc4ncccc4o3)c2)cc1 [Example 43B.26] | 97.7%
Nc1ncc(-c2ccc(C(=O)NCCCN3CCCCC3)cc2)cc1-c1nc2cccnc2o1 [Example 45A.9] | 99.0%

Next, values leading:

% Axl tyrosine kinase inhibition at 1 μM concentration | SMILES
99.8% | COCC(=O)N1CCC(n2cc(-c3cnc(N)c(-c4nc5cccnc5o4)c3)cn2)CC1 [Example 57.5]
98.5% | COCc1ccccc1-c1cnc(N)c(-c2nc3ccccc3o2)c1 [Example 2.36]
99.0% | CC(=O)NCCC(=O)N1CCC(n2cc(-c3cnc(N)c(-c4nc5cccnc5o4)c3)cn2)CC1 [Example 59.11]
98.0% | N#CCc1cccc(-c2cnc(N)c(-c3nc4ccccc4o3)c2)c1 [Example 2.47]
100.0% | CN1CCC(n2cc(-c3cnc(N)c(-c4nc5ccccc5o4)c3)c(C#N)n2)CC1 [Example 41.28]
100.0% | Nc1ncc(-c2cn(C3CCNCC3)nc2CO)cc1-c1nc2c(F)cccc2o1 [Example 62.6]
100.0% | CN1CCC(n2cc(-c3cnc(N)c(-c4nc5c(F)cccc5o4)c3)c(CO)n2)CC1 [Example 41.32]
99.1% | Nc1ncc(-c2ccc(CN3CCOCC3)cc2)nc1-c1nc2ccccc2o1 [Example 20.6]
99.8% | CN1CCC(n2cc(-c3cnc(N)c(-c4nc5cnccc5o4)c3)cn2)CC1 [Example 41.1]
98.1% | CO[C@H](C)C(=O)N1CCC(n2cc(-c3cnc(N)c(-c4nc5ncccc5o4)c3)cn2)CC1 [Example 59.2]
100.0% | Cc1nn(C2CCN(C)CC2)cc1-c1cnc(N)c(-c2nc3c(F)cccc3o2)c1 [Example 41.23]
99.1% | Nc1ncc(-c2ccc(CN3CCOCC3)cc2)cc1-c1nc2ccccc2o1 [Example 2.7]
67.3% | NC(=O)c1cccc(-c2cnc(N)c(-c3nc4ccccc4o3)c2)c1 [Example 2.34]
98.4% | CN1CCC(Cn2cc(-c3cnc(N)c(-c4nc5ccccc5o4)c3)cn2)C1 (stereo not shown) [Example 41.15]
15.8** % | Nc1ncc(-c2ccc3c(c2)OCO3)cc1-c1nc2ccccc2o1 [Example 2.42]
95.7% | CN1CCC(n2cc(-c3cnc(N)c(-c4nc5ccc(OC(F)(F)F)cc5o4)c3)cn2)CC1 [Example 7.10]
99.9% | CN1CCC(Cn2cc(-c3cnc(N)c(-c4nc5ccccc5o4)c3)cn2)CC1 [Example 41.6]

Same assay, conditions: test compound at 1 μM; first value quoted; read-out: % Axl tyrosine kinase inhibition at 1 μM concentration

inhibition at 1 µM [%] | SMILES
100 | CC(C)N1CCC(n2cc(-c3cnc(N)c(-c4nc5ccccc5o4)c3)cn2)CC1 [Example 5, 3-(1,3-Benzoxazol-2-yl)-5-[1-(1-isopropyl-4-piperidyl)pyrazol-4-yl]pyridin-2-amine]
99.3 | Nc1ncc(-c2cnn(CCN3CCOCC3)c2)cc1-c1nc2ccccc2o1 [Example 26, 3-(1,3-benzoxazol-2-yl)-5-[1-(2-morpholinoethyl)pyrazol-4-yl]pyridin-2-amine]
99.9 | CNC(=O)[C@@H]1C[C@@H](n2cc(-c3cnc(N)c(-c4nc5ccccc5o4)c3)cn2)CN1C [Example 39, (2S,4R)-4-[4-[6-amino-5-(1,3-benzoxazol-2-yl)-3-pyridyl]pyrazol-1-yl]-N,1-dimethyl-pyrrolidine-2-carboxamide]
99.9 | Nc1ncc(-c2cnn(CCN3CCNCC3)c2)cc1-c1nc2ccccc2o1 [Example 32, 3-(1,3-benzoxazol-2-yl)-5-[1-(2-piperazin-1-ylethyl)pyrazol-4-yl]pyridin-2-amine]
99.8 | CN1CCN(CCn2cc(-c3cnc(N)c(-c4nc5ccccc5o4)c3)cn2)CC1 [Example 30, 3-(1,3-benzoxazol-2-yl)-5-[1-[2-(4-methylpiperazin-1-yl)ethyl]pyrazol-4-yl]pyridin-2-amine]
100 | CN1CCC(n2cc(-c3cnc(N)c(-c4nc5cccc(CO)c5o4)c3)cn2)CC1 [Example 65, [2-[2-amino-5-[1-(1-methyl-4-piperidyl)pyrazol-4-yl]-3-pyridyl]-1,3-benzoxazol-7-yl]methanol]
99.5 | COCCOC(=O)N1CCC(n2cc(-c3cnc(N)c(-c4nc5ncccc5o4)c3)cn2)CC1 [Example 54, 2-methoxyethyl 4-[4-(6-amino-5-oxazolo[4,5-b]pyridin-2-yl-3-pyridyl)pyrazol-1-yl]piperidine-1-carboxylate]
99.6 | COc1ccc2nc(-c3cc(-c4cnn(C5CCN(C)CC5)c4)cnc3N)oc2c1 [Example 35, 3-(6-methoxy-1,3-benzoxazol-2-yl)-5-[1-(1-methyl-4-piperidyl)pyrazol-4-yl]pyridin-2-amine]
99.7 | Nc1ncc(-c2ccc(OCCCN3CCCC3)cc2)cc1-c1nc2cccnc2o1 [Example 42, 3-oxazolo[5,4-b]pyridin-2-yl-5-[4-(3-pyrrolidin-1-ylpropoxy)phenyl]pyridin-2-amine]

Same assay, conditions: test compound at 30 μM

SMILES | % of Axl tyrosine kinase activity inhibited at a concentration of 30 μM
Nc1ncc(-c2ccc3c(c2)OCO3)cc1-c1nc2ccccc2o1 [Example 2.42] | **the compound disclosed in Example 2.42 inhibited 53.6% of Axl tyrosine kinase activity at a concentration of 30 μM.
